From article PMC9248040 (RSC Advances, 2022)

How the values were obtained:
Format in all cases: biochemical
Aβ1–42 (amyloid-β 1-42) = Aβ1–42 (amyloid-β 1-42) (Homo sapiens, UniProt P05067); assay: fluorescent-probe fibril aggregation inhibition kit assay
[1] = target: T1, MAO-B (monoamine oxidase-B) (Homo sapiens, UniProt P27338); assay: fluorometric OxiRed-probe kit inhibition assay
T1 sequence (P27338 2-520): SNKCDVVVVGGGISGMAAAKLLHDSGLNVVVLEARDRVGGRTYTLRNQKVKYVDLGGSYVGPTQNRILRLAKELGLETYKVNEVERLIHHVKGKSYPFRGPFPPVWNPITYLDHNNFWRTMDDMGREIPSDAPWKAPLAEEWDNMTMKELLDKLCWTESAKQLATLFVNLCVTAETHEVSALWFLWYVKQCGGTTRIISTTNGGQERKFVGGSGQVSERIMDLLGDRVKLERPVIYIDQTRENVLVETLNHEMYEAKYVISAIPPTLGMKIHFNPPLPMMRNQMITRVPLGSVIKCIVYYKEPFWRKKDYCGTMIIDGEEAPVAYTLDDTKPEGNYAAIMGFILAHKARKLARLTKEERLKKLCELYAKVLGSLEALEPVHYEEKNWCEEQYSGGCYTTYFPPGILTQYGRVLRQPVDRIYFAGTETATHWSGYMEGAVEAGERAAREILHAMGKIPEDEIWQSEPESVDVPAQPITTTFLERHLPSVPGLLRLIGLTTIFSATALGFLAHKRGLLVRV

BACE1 (β-secretase) = BACE1 (β-secretase) (Homo sapiens, UniProt P56817); assay: fluorescence kit substrate-cleavage inhibition assay
BACE1 (β-secretase), sequence (P56817 46-457): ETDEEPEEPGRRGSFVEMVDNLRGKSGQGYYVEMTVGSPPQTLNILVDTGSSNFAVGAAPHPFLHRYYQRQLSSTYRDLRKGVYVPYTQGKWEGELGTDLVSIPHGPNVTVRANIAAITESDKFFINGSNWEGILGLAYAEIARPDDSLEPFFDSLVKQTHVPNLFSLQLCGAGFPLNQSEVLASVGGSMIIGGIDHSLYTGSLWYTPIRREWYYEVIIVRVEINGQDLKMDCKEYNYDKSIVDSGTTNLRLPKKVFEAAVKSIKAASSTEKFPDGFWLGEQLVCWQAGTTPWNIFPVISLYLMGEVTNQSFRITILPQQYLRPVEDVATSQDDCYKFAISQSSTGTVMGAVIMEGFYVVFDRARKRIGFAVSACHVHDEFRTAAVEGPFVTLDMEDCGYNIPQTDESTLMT

Aβ1–42 (amyloid-β 1-42), sequence (P05067 672-713): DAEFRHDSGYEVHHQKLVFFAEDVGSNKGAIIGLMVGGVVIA

Row | Structure (SMILES) | IC50 (Aβ1–42 (amyloid-β 1-42)) [µM] | IC50 [1] [µM] | IC50 (BACE1 (β-secretase)) [µM]
1 | COc1cc(/C=C/C(=O)NCCc2ccc(O)c(OC)c2)ccc1O [compound 1, N-trans-feruloyl-3-methoxytyramine] | 0.874 | 2.07 | 15.7
2 | COc1cc(/C=C/C(=O)NCCc2ccc(O)cc2)ccc1O [compound 2, N-trans-feruloyltyramine] | 3.83 | 7.15 | 37
3 | COc1cc(/C=C/C(=O)NC[C@@H](O)c2ccc(O)cc2)ccc1O [compound 4, S-(−)-N-trans-feruloyloctopamine] | 39.8 | 18 | 110
4 | O=C(/C=C/c1ccc(O)c(O)c1)NCCc1ccc(O)cc1 [compound 6, N-trans-caffeoyltyramine] | 20.2 | 8.75 | 34.1
5 | COc1cc(/C=C/C(=O)NC[C@@H](OC)c2ccc(O)cc2)ccc1O [compound 7, S-(−)-3-(4-hydroxy-3-methoxyphenyl)-N-[2-(4-hydroxyphenyl)-methoxyethyl]acrylamide] | 7.63 | 4.43 | 16.4
